Source: PubChem BioAssay (NCI)
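Assay format: 96-well plates, 48-hour exposure. TGI denotes the concentration required for complete inhibition of growth.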

Tests used:
Test in all cases: NCI anticancer screen, dose series, 48 h
[1] = test system: IGROV1 ovarian
[2] = test system: MDA-MB-231 breast
[3] = test system: LOX IMVI melanoma
[4] = test system: EKVX NSCLC
[5] = test system: SK-MEL-2 melanoma
[6] = test system: HT29 colon
[7] = test system: NCI-H226 lung
[8] = test system: MOLT-4 leukemia
[9] = test system: M14 melanoma
[10] = test system: OVCAR-8 ovarian
[11] = test system: HOP-92 NSCLC
[12] = test system: MDA-N
[13] = test system: CCRF-CEM leukemia
[14] = test system: OVCAR-5 ovarian
[15] = test system: MALME-3M melanoma
[16] = test system: HCT-15 colon
[17] = test system: ACHN renal
[18] = test system: NCI/ADR-RES ovarian
[19] = test system: UO-31 renal

SMILES | TGI [1] | TGI [2] | TGI [3] | TGI [4] | TGI [5] | TGI [6] | TGI [7] | TGI [8] | TGI [9] | TGI [10] | TGI [11] | TGI [12] | TGI [13] | TGI [14] | TGI [15] | TGI [16] | TGI [17] | TGI [18] | TGI [19]
O=C(/C=c1\oc(=O)/c(=C/C(=O)c2ccc(Cl)cc2)oc1=O)c1ccc(Cl)cc1 | > 100 µM | > 100 µM | > 100 µM | > 100 µM | > 100 µM | > 100 µM | > 100 µM | 56 µM | > 100 µM | > 100 µM | > 100 µM | > 100 µM | > 100 µM | > 100 µM | > 100 µM | > 100 µM | > 100 µM | > 100 µM | > 100 µM
C=CCOc1ccc(C2(c3ccc(OCC=C)cc3)C(=O)Nc3ccccc32)cc1 | > 10 µM | > 10 µM | > 10 µM | > 10 µM | > 10 µM | > 10 µM | > 10 µM | > 10 µM | > 10 µM | > 10 µM | > 10 µM | > 10 µM | > 10 µM | > 10 µM | > 10 µM | > 10 µM | > 10 µM | > 10 µM | 
COc1ccc2c(c1)CCC(CN1CCN(CCOC(c3ccc(F)cc3)c3ccc(F)cc3)CC1)C2O (centres undefined) | 28.4 µM | 27.4 µM | 29.8 µM | 25.5 µM | 30.8 µM | 18.4 µM | 39.8 µM | 36.2 µM | 25.5 µM | 27.4 µM | 26.7 µM | 29.7 µM | 48.3 µM | 28.6 µM | 28 µM | 22.3 µM | 19.8 µM | 25.4 µM | 
N#Cc1c(N)c2c(c(-c3ccccc3)c1-c1ccccc1)C(=O)N(Nc1ccccc1)C2=O | > 100 µM | > 100 µM | 86.8 µM | > 100 µM | > 100 µM |  | > 100 µM | > 100 µM | 87.4 µM | > 100 µM | > 100 µM | > 100 µM | > 100 µM | > 100 µM | > 100 µM | > 100 µM | > 100 µM | > 100 µM | 78.3 µM
CCOC(=O)NC(Nc1ccc(F)c(F)c1)(C(=O)OCC)C(F)(F)F (centres undefined) | > 100 µM | > 100 µM | > 100 µM | > 100 µM | > 86.5 µM | > 100 µM | > 100 µM | > 100 µM | > 100 µM | > 100 µM | > 100 µM | > 100 µM | > 100 µM | > 100 µM | > 100 µM | > 100 µM | > 100 µM | > 100 µM | > 100 µM
COc1cc(/C=C/C=C2\CCC/C(=C\C=C\c3ccc(O)c(OC)c3)C2=O)ccc1O | 74.7 µM | > 100 µM | 33.5 µM | 64.7 µM | 87.5 µM | 31.1 µM |  | 10.4 µM | > 100 µM | 72.3 µM | 44.9 µM | > 100 µM | 8.99 µM | 79.5 µM | 44.8 µM | 43.7 µM | 39 µM | 48.8 µM | 39.5 µM
CCOC(=O)c1c(C)noc1/N=N/N(CCO)CCO | > 100 µM | > 100 µM | > 100 µM | > 100 µM |  | > 100 µM | 63.5 µM | 60.3 µM | > 100 µM | > 100 µM | 88.5 µM | > 100 µM | 59.3 µM | > 100 µM | > 100 µM | > 100 µM | > 100 µM | > 100 µM | 77.2 µM
CCCC(=O)OCC1(CO)C/C(=C/CC(C(C)C)C(C)C)C(=O)O1 (centres undefined) | > 100 µM | > 100 µM | 35.8 µM | > 100 µM | > 100 µM | > 100 µM | > 100 µM |  |  | > 100 µM | > 100 µM | > 100 µM | > 100 µM | > 100 µM | > 100 µM | > 100 µM | > 100 µM | > 100 µM | > 100 µM
COC(=O)/C(=N\N)C(C(=O)C(=O)Nc1cccc([N+](=O)[O-])c1)c1nc2ccc(C(=O)c3ccccc3)cc2[nH]c1=O (centres undefined) | > 100 µM | > 100 µM | > 100 µM | > 100 µM | > 100 µM | > 100 µM | > 100 µM | 89.8 µM | > 100 µM | > 100 µM | > 100 µM | > 100 µM | 79.4 µM | > 100 µM |  | > 100 µM | > 100 µM | > 100 µM | > 100 µM
N#Cc1nc(Sc2cnsn2)c(Sc2cnsn2)nc1C#N | 37.3 µM | 48.7 µM | 50.2 µM | 36.7 µM | 47 µM | 47.6 µM | 43.7 µM | > 30.1 µM | 60.7 µM | > 75.5 µM | > 70.5 µM | 49.6 µM |  | 38.8 µM | 33.3 µM | 13.1 µM | 16 µM | 54.3 µM | 65.6 µM
Brc1cccc(Nc2ncnc3sc4c(c23)CCC(Nc2cccc(Br)c2)C4)c1 (centres undefined) | > 100 µM | > 100 µM | > 100 µM | > 100 µM | > 100 µM | > 100 µM |  | > 100 µM | > 100 µM | > 100 µM | > 100 µM | > 100 µM | > 100 µM | > 100 µM | > 100 µM | > 100 µM | > 100 µM | > 100 µM | > 100 µM
FC(F)(F)c1ccc2c(c1)nc(Cc1ccc(Cl)c(Cl)c1)n2CC1CCCN2CCCCC12 (centres undefined) | > 100 µM | 48.7 µM | 31.6 µM | 80.3 µM | 76.3 µM | 28.2 µM | 90.7 µM | > 100 µM | 25.2 µM | > 100 µM | > 100 µM | 38.8 µM |  | 46.2 µM | 28.6 µM | > 100 µM | > 100 µM | 84.7 µM | 
c1ccc(CN2CCCN3CCN(CCCN(Cc4ccccc4)CC3)CC2)cc1 | > 100 µM | > 100 µM | > 100 µM | > 100 µM | 49.9 µM | > 100 µM | > 100 µM | > 100 µM | > 100 µM | > 100 µM | > 100 µM | > 100 µM | > 100 µM | > 100 µM |  | > 100 µM | > 100 µM | > 100 µM | > 100 µM
